This is an account of results in DBAASP.

In brackets after ≈: the same amount, converted by molar mass. Where only a bound is given, the exact number is not on record here.

Holding throughout (assay): ≥ marks a high value that may be exact or a test limit, other limits are often not marked, values filed in µg/mL are converted to µM
Assay [1] concerns Escherichia coli ATCC 25922.
For assay [2], the system named is Staphylococcus aureus ATCC 25923.
The test system of assay [3] is Pseudomonas aeruginosa.
The subject of assay [4] is Staphylococcus aureus ATCC 29213.
The subject of assay [5] is Escherichia coli.
The test system of assay [6] is Staphylococcus aureus.

By MIC is commonly meant the least concentration at which growth counts as inhibited. High values mean a need for much substance, low ones inhibition by little substance.

Regarding `CC[C@H](C)[C@H](NC(=O)[C@H](CCCN=C(N)N)NC(=O)[C@H](CCCCN)NC(=O)[C@H](CC(C)C)NC(=O)[C@H](C)NC(=O)CN)C(=O)N[C@@H](CCCCN)C(=O)N[C@H](C(=O)N[C@@H](CC(C)C)C(=O)N[C@@H](CC(C)C)C(N)=O)[C@@H](C)O` [GALKRIKTLL], the minimum inhibitory concentration (MIC) in assay [1] and in assay [2] was over 38.7 µM in each case.
Turning to `CC[C@H](C)[C@H](NC(=O)[C@H](CC(N)=O)NC(=O)[C@H](CCCCN)NC(=O)[C@H](CC(C)C)NC(=O)[C@H](CC(C)C)NC(=O)CN)C(=O)N[C@@H](CCCCN)C(=O)N[C@H](C(=O)N[C@@H](CC(C)C)C(=O)N[C@@H](CC(C)C)C(N)=O)[C@@H](C)O` [GLLKNIKTLL], the MIC in assay [1] was found to be 30.6 µM (≈ 34 µg/mL); in assay [2] it was 62 µM (≈ 68.9 µg/mL).
Molecule `NC(=O)[C@H](CCCN=C(N)N)NC(=O)[C@H](CCCN=C(N)N)NC(=O)[C@H](Cc1c[nH]c2ccccc12)NC(=O)[C@H](Cc1c[nH]c2ccccc12)NC(=O)[C@H](CCCN=C(N)N)NC(=O)[C@H](CCCN=C(N)N)NC(=O)[C@H](Cc1c[nH]c2ccccc12)NC(=O)[C@H](Cc1c[nH]c2ccccc12)NC(=O)[C@H](Cc1c[nH]c2ccccc12)NC(=O)[C@H](CCCN=C(N)N)NC(=O)[C@H](CCCN=C(N)N)NC(=O)[C@@H](N)CCCN=C(N)N` [RRRWWWRRWWRR] registered an MIC in assay [3] of 1.96 µM (≈ 4 µg/mL). That is a single-digit micromolar value.
For the molecule `CC(=O)N[C@@H](CCCCN)C(=O)N[C@@H](CC(C)C)C(=O)N[C@@H](CC(C)C)C(=O)N[C@@H](CCCCN)C(=O)N[C@@H](CC(C)C)C(=O)N[C@@H](CC(C)C)C(=O)N[C@@H](CCCCN)C(=O)N[C@@H](CCCCN)C(=O)N1CCC[C@H]1C(=O)N[C@@H](CC(C)C)C(=O)N[C@@H](CCCCN)C(=O)N[C@@H](CC(C)C)C(=O)N[C@@H](CC(C)C)C(=O)N[C@@H](CCCCN)C(N)=O` [KLLKLLKKPLKLLK], the MIC in assay [1] and in assay [4] was over 80 µM throughout.
On to `CSCC[C@H](NC(=O)[C@@H](NC(=O)[C@H](CCCN=C(N)N)NC(=O)[C@H](Cc1ccccc1)NC(=O)[C@H](C)NC(=O)[C@H](C)NC(=O)[C@H](CCCCN)NC(=O)[C@H](CC(C)C)NC(=O)[C@H](Cc1c[nH]c2ccccc12)NC(=O)[C@H](C)NC(=O)[C@@H]1CCCN1C(=O)[C@@H](N)CCCN=C(N)N)C(C)C)C(=O)N[C@@H](CCCN=C(N)N)C(=O)N[C@@H](C)C(=O)N[C@@H](CS)C(=O)N[C@H](C(N)=O)C(C)C` [RPAWLKAAFRVMRACV], for which the MIC in assay [3] was determined as 4.27 µM (≈ 8 µg/mL).
Consider `CC[C@H](C)[C@H](NC(=O)[C@H](Cc1ccccc1)NC(=O)[C@H](CO)NC(=O)[C@H](CCCCN)NC(=O)[C@H](Cc1c[nH]c2ccccc12)NC(=O)[C@@H](N)CCCCN)C(=O)N[C@@H](CCCCN)C(=O)N[C@@H](CCCCN)C(=O)N[C@@H](CO)C(=O)N[C@H](C(=O)N[C@@H](CO)C(=O)N[C@@H](CCCCN)C(=O)N[C@@H](Cc1ccccc1)C(=O)N[C@@H](CC(C)C)C(=O)N[C@@H](Cc1cnc[nH]1)C(=O)N[C@@H](CO)C(=O)N[C@@H](C)C(=O)N[C@@H](CCCCN)C(=O)N[C@@H](CCCCN)C(=O)N[C@@H](Cc1ccccc1)C(N)=O)[C@@H](C)O` [KWKSFIKKSTSKFLHSAKKF], for which the MIC in assay [3] is 20.6 µM (≈ 50 µg/mL).
Regarding `CC(=O)N[C@@H](CC(C)C)C(=O)N[C@@H](CCCCN)C(=O)N[C@@H](CCCCN)C(=O)N[C@@H](CC(C)C)C(=O)N[C@@H](CC(C)C)C(=O)N[C@@H](CCCCN)C(=O)N[C@@H](CC(C)C)C(=O)N[C@@H](CC(C)C)C(=O)N1CCC[C@H]1C(=O)N[C@@H](CCCCN)C(=O)N[C@@H](CC(C)C)C(=O)N[C@@H](CC(C)C)C(=O)N[C@@H](CCCCN)C(=O)N[C@@H](CC(C)C)C(N)=O` [LKKLLKLLPKLLKL], the MIC stood at 5 µM (≈ 8.51 µg/mL) in assay [1] and 2.5 µM (≈ 4.26 µg/mL) in assay [4].
Consider `C[C@@H](O)[C@H](NC(=O)[C@H](CO)NC(=O)[C@H](CO)NC(=O)[C@@H](N)CCCCN)C(=O)N[C@@H](CCCN=C(N)N)C(=O)NCC(=O)N[C@@H](CCCN=C(N)N)C(=O)N[C@@H](CCCCN)C(=O)N[C@@H](CO)C(=O)N[C@@H](CO)C(=O)N[C@@H](CCCN=C(N)N)C(=O)N[C@@H](CCCN=C(N)N)C(=O)N[C@@H](CCCCN)C(=O)N[C@@H](CCCCN)C(=O)O` [KSSTRGRKSSRRKK], for which the MIC in assay [1] was 120 µM (≈ 200 µg/mL); in assay [2] it was over 308 µM.
For `CC[C@H](C)[C@H](NC(=O)CN)C(=O)NCC(=O)N[C@@H](CCCCN)C(=O)N[C@@H](Cc1ccccc1)C(=O)N[C@H](C(=O)N[C@@H](Cc1cnc[nH]1)C(=O)N[C@@H](CO)C(=O)N[C@@H](C)C(=O)N[C@@H](CCCCN)C(=O)N[C@@H](CCCCN)C(=O)N[C@@H](Cc1ccccc1)C(=O)NCC(=O)N[C@@H](CCCCN)C(=O)N[C@@H](CC(C)C)C(=O)N[C@@H](Cc1ccccc1)C(=O)N[C@H](C(=O)NCC(=O)N[C@@H](CCC(=O)O)C(=O)N[C@H](C(=O)N[C@@H](CCSC)C(=O)N[C@@H](CC(N)=O)C(=O)N[C@@H](CO)C(N)=O)[C@@H](C)CC)C(C)C)[C@@H](C)CC` [GIGKFIHSAKKFGKLFVGEIMNS], the MIC in assay [5] was found to be 26.9 µM (≈ 67.4 µg/mL); in assay [3] it was 76 µM (≈ 191 µg/mL); in assay [6], 38 µM (≈ 95.3 µg/mL).
In assay [5], `CC(C)[C@@H]1NC(=O)[C@@H]2CSSC[C@H](NC(=O)[C@H](Cc3ccc(O)cc3)NC(=O)[C@@H](N)CSSC[C@@H](C(=O)O)NC1=O)C(=O)N[C@@H](CCCN=C(N)N)C(=O)N[C@@H](CCCN=C(N)N)C(=O)N[C@@H](CCCN=C(N)N)C(=O)N[C@@H](Cc1ccccc1)C(=O)N2` [CYCRRRFCVC] had an MIC of 10.8 µM (≈ 14.1 µg/mL).
`CC[C@@H](C)[C@H](N=C(O)[C@H](CCCCN)N=C(O)[C@H](CS)N=C(O)[C@H](CCCCN)N=C(O)[C@H](CC(C)C)N=C(O)CN=C(O)C(CCC(=O)O)N=C(O)[C@H](CC(C)C)N=C(O)[C@H](CCCCN)N=C(O)CN=C(O)[C@H](C)N=C(O)[C@H](N=C(O)[C@H](CC(=O)O)N=C(O)[C@H](CCCCN)N=C(O)[C@H](C)N=C(O)[C@H](C)N=C(O)CN=C(O)C(CCCCN)N=C(O)C(CC(C)C)N=C(O)[C@H](N=C(O)C(CC(=O)O)N=C(O)[C@H](CC(C)C)N=C(O)[C@H](Cc1ccccc1)N=C(O)C(CC(C)C)N=C(O)CN)C(C)O)C(C)C)C(O)=N[C@H](C(O)=NCC(O)=N[C@H](CS)C(O)=N[C@H](CCCCN)C(O)=N[C@H](CC(C)C)C(=O)N1CCCC1C(=O)O)[C@@H](C)O` (some centres undefined) [GLFLDTLKGAAKDVAGKLEGLKCKITGCKLP] came in with an MIC in assay [6] of 60 µM (≈ 191 µg/mL). This lies in the double-digit micromolar range.
Turning to `CC[C@H](C)[C@H](NC(=O)[C@H](Cc1ccc(O)cc1)NC(=O)[C@H](Cc1c[nH]c2ccccc12)NC(=O)[C@H](CC(C)C)NC(=O)[C@H](Cc1c[nH]c2ccccc12)NC(=O)[C@H](CCCN=C(N)N)NC(=O)[C@@H](NC(=O)[C@@H](NC(=O)[C@H](CCCN=C(N)N)NC(=O)[C@H](Cc1ccccc1)NC(=O)[C@H](Cc1c[nH]c2ccccc12)NC(=O)[C@H](CCCN=C(N)N)NC(=O)[C@H](Cc1c[nH]c2ccccc12)NC(=O)[C@H](CC(C)C)NC(=O)[C@H](CCCN=C(N)N)NC(=O)[C@H](C)NC(=O)[C@H](Cc1c[nH]c2ccccc12)NC(=O)[C@@H](N)CCCCN)[C@@H](C)CC)[C@@H](C)O)C(=O)N[C@@H](CCCCN)C(N)=O` [KWARLWRWFRITRWLWYIK], the MIC in assay [5] and in assay [6] was over 36.2 µM in each case.
As to `CC[C@H](C)[C@H](NC(=O)[C@H](C)NC(=O)CNC(=O)[C@H](C)NC(=O)[C@H](CCCCN)NC(=O)[C@H](CO)NC(=O)[C@H](C)NC(=O)[C@H](CCSC)NC(=O)CN)C(=O)N[C@@H](C)C(=O)NCC(=O)N[C@@H](CCCCN)C(=O)N[C@H](C(=O)N[C@@H](C)C(=O)N[C@@H](CCCCN)C(=O)N[C@H](C(=O)N[C@@H](C)C(=O)N[C@@H](Cc1c[nH]c2ccccc12)C(=O)N[C@@H](CCCCN)C(=O)N[C@@H](C)C(=O)N[C@@H](CC(C)C)C(=O)NCC(=O)NCC(=O)N[C@@H](CO)C(N)=O)C(C)C)[C@@H](C)CC` [GMASKAGAIAGKIAKVAWKALGGS], the MIC in assay [1] came out at 12.5 µM (≈ 28 µg/mL).
For `CC[C@H](C)[C@H](NC(=O)CN)C(=O)N[C@@H](C)C(=O)N[C@@H](CCCCN)C(=O)N[C@@H](Cc1ccccc1)C(=O)NCC(=O)N[C@@H](CCCCN)C(=O)N[C@@H](C)C(=O)N[C@@H](C)C(=O)N[C@@H](C)C(=O)N[C@@H](Cc1cnc[nH]1)C(=O)N[C@@H](Cc1ccccc1)C(=O)NCC(=O)N[C@@H](CCCCN)C(=O)N[C@@H](CCCCN)C(=O)N[C@@H](Cc1c[nH]c2ccccc12)C(=O)N[C@H](C(=O)NCC(=O)N[C@@H](CCC(=O)O)C(=O)N[C@@H](CC(C)C)C(=O)N[C@@H](CCSC)C(=O)N[C@@H](CC(N)=O)C(=O)N[C@@H](CO)C(N)=O)C(C)C` [GIAKFGKAAAHFGKKWVGELMNS], the figures for the MIC in assay [5], in assay [3] and in assay [6] were 75 µM (≈ 184 µg/mL), over 75 µM and over 75 µM, respectively.
In assay [6], `CC[C@H](C)[C@H](NC(=O)[C@H](C)NC(=O)[C@H](CO)NC(=O)[C@@H](NC(=O)[C@@H](N)Cc1ccccc1)[C@@H](C)CC)C(=O)N[C@@H](C)C(=O)N[C@@H](CO)C(=O)N[C@@H](Cc1ccccc1)C(=O)N[C@@H](CC(C)C)C(=O)NCC(=O)N[C@@H](CCCCN)C(=O)N[C@@H](Cc1ccccc1)C(=O)N[C@@H](CC(C)C)C(=O)O` [FISAIASFLGKFL] registered an MIC of 130 µM (≈ 184 µg/mL).
Molecule `CC(C)C[C@H](NC(=O)[C@H](CCC(N)=O)NC(=O)[C@H](CCCCN)NC(=O)[C@H](CCCN=C(N)N)NC(=O)[C@H](Cc1ccccc1)NC(=O)[C@@H](N)CC(C)C)C(=O)N[C@@H](CCCCN)C(=O)N[C@@H](Cc1c[nH]c2ccccc12)C(=O)O` [LFRKQLKW] came in with an MIC in assay [1] of 1.79 µM (≈ 2 µg/mL).
Consider `CC[C@H](C)[C@H](NC(=O)[C@H](CCCN=C(N)N)NC(=O)[C@H](C)NC(=O)[C@H](CC(C)C)NC(=O)[C@H](CC(C)C)NC(=O)CN)C(=O)N[C@@H](CCCCN)C(=O)N[C@H](C(=O)N[C@@H](CC(C)C)C(=O)N[C@@H](CC(C)C)C(N)=O)[C@@H](C)O` [GLLARIKTLL], for which the MIC in assay [1] came to 14.6 µM (≈ 16 µg/mL); in assay [2], 25.5 µM (≈ 28 µg/mL).
In assay [1], `CC(C)C[C@H](NC(=O)[C@H](CCC(N)=O)NC(=O)[C@H](CCCCN)NC(=O)[C@H](CCCCN)NC(=O)[C@@H]1CCCN1C(=O)[C@H](C)N)C(=O)N[C@@H](CCCCN)C(=O)N[C@@H](Cc1c[nH]c2ccccc12)C(=O)O` [APKKQLKW] registered an MIC of 16 µM (≈ 16 µg/mL).
